According to the supplement of paper PMC10307832:

Assays:
Assay in all cases: relative viability (nuclei count vs DMSO), 5 days (fraction); higher = more cells survive
Ibrutinib + Pictilisib = compound: C=CC(=O)N1CCC[C@@H](n2nc(-c3ccc(Oc4ccccc4)cc3)c3c(N)ncnc32)C1 [Ibrutinib] + CS(=O)(=O)N1CCN(Cc2cc3nc(-c4cccc5[nH]ncc45)nc(N4CCOCC4)c3s2)CC1 [Pictilisib] (partner 1 µM)
Procedure, shortened: (§1)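 Dosing by pin tool came one day after lung cancer cell lines were seeded in 1536-well plates, using either one drug or a fixed anchor-drug dose plus five library-drug doses (not always all listed) in √10 steps. After 5 days, nuclei were counted on 4× images. Relative viability is treated-well nuclei count divided by vehicle-well nuclei count, and values are medians of duplicate plates.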

BMX-IN-1 + OSI-027 = compound: C=CC(=O)Nc1cc(-n2c(=O)ccc3cnc4ccc(-c5ccc(NS(C)(=O)=O)cc5)cc4c32)ccc1C [BMX-IN-1] + COc1cccc2cc(-c3nc([C@H]4CC[C@H](C(=O)O)CC4)n4ncnc(N)c34)[nH]c12 [OSI-027] (partner 0.5 µM)
Procedure, shortened: as §1

BMX-IN-1 + Alpelisib = compound: C=CC(=O)Nc1cc(-n2c(=O)ccc3cnc4ccc(-c5ccc(NS(C)(=O)=O)cc5)cc4c32)ccc1C [BMX-IN-1] + Cc1nc(NC(=O)N2CCC[C@H]2C(N)=O)sc1-c1ccnc(C(C)(C)C(F)(F)F)c1 [Alpelisib] (partner 2 µM)
Procedure, shortened: as §1

PAC-1 + Palbociclib = compound: C=CCc1cccc(/C=N/NC(=O)CN2CCN(Cc3ccccc3)CC2)c1O [PAC-1] + CC(=O)c1c(C)c2cnc(Nc3ccc(N4CCNCC4)cn3)nc2n(C2CCCC2)c1=O [Palbociclib] (partner 0.5 µM)
Procedure, shortened: as §1

Cell Line	relative viability (Ibrutinib + Pictilisib; first compound 0.005 µM)	relative viability (Ibrutinib + Pictilisib; first compound 0.01581 µM)	relative viability (Ibrutinib + Pictilisib; first compound 0.05 µM)	relative viability (Ibrutinib + Pictilisib; first compound 0.1581 µM)	relative viability (Ibrutinib + Pictilisib; first compound 0.5 µM)	relative viability (BMX-IN-1 + OSI-027; first compound 0.02 µM)	relative viability (BMX-IN-1 + OSI-027; first compound 0.2 µM)	relative viability (BMX-IN-1 + OSI-027; first compound 0.6325 µM)	relative viability (BMX-IN-1 + OSI-027; first compound 2 µM)	relative viability (BMX-IN-1 + Alpelisib; first compound 0.02 µM)	relative viability (BMX-IN-1 + Alpelisib; first compound 0.2 µM)	relative viability (BMX-IN-1 + Alpelisib; first compound 0.6325 µM)	relative viability (BMX-IN-1 + Alpelisib; first compound 2 µM)	relative viability (PAC-1 + Palbociclib; first compound 0.02 µM)	relative viability (PAC-1 + Palbociclib; first compound 0.06325 µM)	relative viability (PAC-1 + Palbociclib; first compound 0.2 µM)	relative viability (PAC-1 + Palbociclib; first compound 2 µM)
201T	0.581	0.704	0.66	0.616	0.598	0.805	0.985	0.798	0.824	1.02	1.02	0.987	1.02	0.347	0.346	0.37	0.363
A549	0.396	0.416	0.521	0.586	0.499	–	–	–	–	0.94	0.716	0.813	0.762	–	–	–	–
A-427	0.553	0.623	0.719	0.405	0.743	0.448	0.417	0.501	0.461	1.04	1.11	1.04	1.14	0.574	0.548	0.549	0.507
ABC-1	0.528	0.743	0.716	0.513	0.615	0.504	0.491	0.655	0.412	0.98	1.2	1.22	1.12	0.63	0.742	0.678	0.638
BEN	0.347	0.535	0.518	0.5	0.536	0.319	0.282	0.294	0.31	1.22	1.32	0.938	1.04	0.443	0.489	0.47	0.459
CAL-12T	0.232	0.448	0.394	0.355	0.495	0.712	0.665	0.659	0.679	1.74	1.27	1.04	1.32	0.544	0.52	0.379	0.513
COR-L23	0.626	0.742	0.885	0.925	0.729	1.01	0.945	1.01	0.754	0.95	0.962	0.926	0.921	0.33	0.243	–	0.277
COR-L 105	0.316	0.418	0.488	0.341	0.325	0.817	0.668	0.814	0.586	1.33	1.05	1.11	0.886	0.367	0.402	0.379	0.461
Calu-6	0.854	0.843	0.949	1.05	–	–	–	–	–	0.974	1.13	1.15	0.919	–	–	–	–
ChaGo-K-1	0.356	0.83	0.592	–	0.956	0.731	0.635	0.624	0.786	–	–	–	–	0.914	0.933	0.956	0.954
EBC-1	0.31	0.436	0.378	0.456	0.321	–	–	–	–	0.701	0.698	1.01	0.812	–	–	–	–
